In US7579006B2, “Method of treating immune pathologies with low dose estrogen” (Oregon Health and Science University, priority 2000, dated 2009):
Several values for one entry are separate records, joined by “and”; a condition that tells them apart may be missing. Equal values may be shown once.

How the values were obtained:
spinal cord mRNA = assay: RNAse protection assay of spinal cords of wildtype and cytokine knockout mice with EAE; format: in vivo
Description: RNAse protection assay. Chemokine, chemokine receptor and cytokine mRNAs were detected by RPA essentially as described in Example III, except that analysis was performed on 20 μg total RNA.
Estrogen treatment reduces chemokine and chemokine receptor mRNA expression in the CNS. The egress of inflammatory cells into the CNS is a critical first step in the development of EAE. Chemokines are low molecular weight chemotactic molecules that are thought to play an important role in the migration and retention of immunocompetent cells in the CNS. The influence of E2 treatment on chemokine and chemokine receptor mRNA in the spinal cords of WT and cytokine deficient mice was measured using the RNAse protection assay (RPA). Total RNA was purified from spinal cords collected from mice at the peak of EAE (day 12-16 post-immunization) and chemokine/chemokine receptor specific mRNA was detected using radiolabeled riboprobes. mRNAs coding for many of the chemokine and receptor family members were detectable in the spinal cords of WT C57BL/6 mice with EAE (FIG. 18). RANTES and IP-10 were expressed at the highest levels, followed by MIP-1α, MIP-2 and MCP-1. The levels of TCA-3 mRNA were below the limits of detection for this assay. […]
The expression of cytokine mRNA in the spinal cords of mice at the peak of EAE (day 12-16 post-immunization) was measured by RPA analysis. […]

IL-10 KO mice = assay: EAE induced with MOG 35-55 in IL-10 KO mice (clinical, histopathology); format: in vivo; conditions: 2.5 mg pellet
Description: Estrogen treatment. Sixty-day release pellets containing 2.5 mg of 17β-estradiol (E2) or vehicle were implanted subcutaneously (s.c) in the scapular region behind the neck using a 12-gauge trochar as described by the manufacturer (Innovative Research of America, Sarasota, Fla.). The mice were implanted one week prior to immunization with MOG 35-55. The concentration of E2 expected in the serum is between 1,500-2,000 pg/ml, which is approximately 5 times less than the levels found during pregnancy.
Induction of EAE. C57BL/6 and cytokine deficient mice were inoculated s.c in the flanks with 0.2 ml of an emulsion containing 200 μg of MOG 35-55 in saline and an equal volume of complete Freund's Adjuvant (CFA) containing 400 μg of Mycobacterium tuberculosis H37RA (Difco Laboratories, Detroit, Mich.). Disease induction required i.v. administration of pertussis toxin on the day of immunization (25 ng/mouse) and 2 days later (67 ng/mouse). The mice were assessed daily for clinical signs of EAE according to the 7 point scale described in Example I.
Histopathology. Histopathologic assessment of spinal column section was performed essentially as described in Example I, except that sections were stained with either luxol fast blue-periodic acid schiff-hematoxylin or silver nitrate prior to analysis.
Statistical analysis. Significant differences in incidence and mortality between untreated and E2 treated mice were assessed by Chi-square analysis. Difference in onset was determined using the two-tailed Student t test. Differences in peak score and cumulative disease index (CDI) were assessed by the Mann-Whitney test. Statistical significance of the frequency of cytokine secreting cells was analyzed using Student's t test for comparisons of two means. Differences in the expression of chemokine and cytokine mRNA were also determined using the Student t test. Values of p<0.05 were considered significant.

Vβ8.2+/CD4+ T CELLS = assay: Flow cytometry of adhesion and activation antigens on LN Vβ8.2+/CD4+ T cells; format: in vivo, mice; conditions: E2 treated
Description: The regulation of cell adhesion molecules is another possible mechanism by which estrogen treatment controls the migration of inflammatory cells into the CNS. The expression of cell surface adhesion and activation/memory antigens was determined by staining with fluorochrome-labeled antibodies and flow cytometry. No significant differences in the expression of VLA-4, CD44, or CD62L were detected between LN cells from E2 versus control mice with EAE (Table 18). Furthermore, no differences in activation markers (CD69, CD25, FASL, CD40L, CD28) were seen.

[1] = single experiments (Exp #1-#2), listed as E2
[2] = single experiments (Exp #1-#3), listed as E2

## C[C@]12CC[C@@H]3c4ccc(O)cc4CC[C@H]3[C@@H]1CC[C@@H]2O [17β-estradiol]
Spinal cord mRNA; C57BL/6 and cytokine knockout mice, except LT-β in IFN-γ deficient mice
  levels of LT-β, TNF-α and IFN-γ mRNA in spinal cords: significantly reduced
Spinal cord mRNA; WT and cytokine deficient mice, 2.5 mg pellet
  expression of all chemokine and chemokine receptor mRNA in spinal cord: significantly diminished or absent
IL-10 KO mice; IL-10 KO
  CDI: 6.5 ± 10.9
  Incidence: 6/17
  Mortality: 0/17
  Onset: 22.0 ± 4.3
  Peak Score: 4.2 ± 0.8
IL-10 KO mice; IL-10KO, spinal cord
  Inflammatory foci/section: 0.0 ± 0.0 Foci/Section
Vβ8.2+/CD4+ T CELLS; Exp #1
  CD28, % of Vβ8.2+/CD4+ T CELLS: 4.5%
  CD40L, % of Vβ8.2+/CD4+ T CELLS: 0%
  CD62lo, % of Vβ8.2+/CD4+ T CELLS: 47.3%
Vβ8.2+/CD4+ T CELLS; mean of experiments
  CD25, % of Vβ8.2+/CD4+ T CELLS, mean: 7.4 ± 4.3%
  CD44hi, % of Vβ8.2+/CD4+ T CELLS, mean: 55.8 ± 13.8%
  CD69, % of Vβ8.2+/CD4+ T CELLS, mean: 21.6 ± 5.8%
  FASL, % of Vβ8.2+/CD4+ T CELLS, mean: 1.6 ± 2.1%
  VLA-4, % of Vβ8.2+/CD4+ T CELLS, mean: 57.5 ± 7.4%
Vβ8.2+/CD4+ T CELLS; [1]
  CD25, % of Vβ8.2+/CD4+ T CELLS: 4.3% and 10.4%
  CD69, % of Vβ8.2+/CD4+ T CELLS: 17.5% and 25.7%
  FASL, % of Vβ8.2+/CD4+ T CELLS: 0.1% and 3.1%
Vβ8.2+/CD4+ T CELLS; [2]
  CD44hi, % of Vβ8.2+/CD4+ T CELLS: 68.8% and 41.2% and 57.3%
  VLA-4, % of Vβ8.2+/CD4+ T CELLS: 64.2% and 58.7% and 49.6%
